Reference: PubChem BioAssay (NCI)
“And” between values parts separate entries of the source, which are not always exact repeats. Equal values may be shown once.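 All cell lines were grown in 96-well plates and treated with compound for 48 hours. GI50 is the concentration that inhibits growth by half. TGI marks complete inhibition of growth.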

Tests used:
Experiment in all cases: NCI tumour cell line growth inhibition, 48 h
[1] = test system: RXF 393 renal
[2] = test system: DU-145 prostate
[3] = test system: BT-549 breast
[4] = test system: P388 leukemia
[5] = test system: ACHN renal
[6] = test system: SF-295 CNS
[7] = test system: 786-0 renal
[8] = test system: TK-10 renal
[9] = test system: MDA-N
[10] = test system: NCI/ADR-RES ovarian
[11] = test system: SNB-78 CNS
[12] = test system: MOLT-4 leukemia
[13] = test system: MDA-MB-231 breast
[14] = test system: PC-3 prostate
[15] = test system: MDA-MB-435
[16] = test system: M14 melanoma
[17] = test system: HCC-2998 colon
[18] = test system: SK-MEL-5 melanoma
[19] = test system: A549 NSCLC
[20] = test system: A498 renal
[21] = test system: SK-MEL-2 melanoma
[22] = test system: NCI-H522 lung
[23] = test system: SW-620 colon
[24] = test system: NCI-H460 lung
[25] = test system: UO-31 renal
[26] = test system: SK-OV-3 ovarian
[27] = test system: LOX IMVI melanoma
[28] = test system: NCI-H23 lung
[29] = test system: SF-539 CNS
[30] = test system: HCT-116 colon
[31] = test system: M19-MEL melanoma
[32] = test system: KM20L2 colon
[33] = test system: HOP-62 NSCLC
[34] = test system: OVCAR-4 ovarian
[35] = test system: SK-MEL-28 melanoma
[36] = test system: HT29 colon
[37] = test system: NCI-H226 lung
[38] = test system: SF-268 CNS
[39] = test system: CAKI-1 renal
[40] = test system: U251 CNS
[41] = test system: RXF-631 renal
[42] = test system: OVCAR-8 ovarian
[43] = test system: HL-60(TB) leukemia
[44] = test system: UACC-257 melanoma
[45] = test system: LXFL 529 NSCLC
[46] = test system: OVCAR-5 ovarian
[47] = test system: SN12C renal
[48] = test system: MALME-3M melanoma
[49] = test system: SR leukemia
[50] = test system: DMS 273 small cell lung
[51] = test system: RPMI-8226 leukemia
[52] = test system: XF 498 CNS
[53] = test system: HCT-15 colon
[54] = test system: OVCAR-3 ovarian
[55] = test system: K-562 leukemia
[56] = test system: IGROV1 ovarian
[57] = test system: SNB-75 CNS
[58] = test system: HOP-92 NSCLC
[59] = test system: COLO 205 colon
[60] = test system: KM12 colon
[61] = test system: SNB-19 CNS
[62] = test system: DLD-1 colon
[63] = test system: UACC-62 melanoma
[64] = test system: DMS 114 small cell lung
[65] = test system: EKVX NSCLC

For CC[C@@H](C)[C@@H]1NC(=O)C(NC(=O)C(CC(C)C)N(C)C(=O)C2CCCN2C(=O)C(C)O)C(C)OC(=O)C(Cc2ccc(OC)cc2)N(C)C(=O)C2CCCN2C(=O)C(CC(C)C)NC(=O)C(C)C(=O)C(C(C)C)OC(=O)C[C@H]1O (stereo not given in full), which TGI [1] is on record?
The TGI was 0.01 µM and 0.0647 µM.

What about the TGI [2] of the same compound?
The TGI was 0.0504 µM.

What about the TGI [3] of the same compound?
The TGI was 0.0967 µM.

And the TGI [4]?
Its TGI is 0.03 µM and < 0.0103 µM.

And the TGI [5]?
The TGI was 0.0204 µM and 0.053 µM.

What about the TGI [6] of the same compound?
The TGI was 0.0115 µM and 0.0194 µM and 0.029 µM.

What about the TGI [7] of the same compound?
The TGI was 0.00827 µM and 0.0533 µM.

What about the TGI [8] of the same compound?
The TGI was 0.0495 µM and 0.0741 µM.

And the GI50 [9]?
Its GI50 is 0.0021 µM.

And the TGI [10]?
The TGI was 1.88 µM and 0.359 µM.

What about the GI50 [11] of the same compound?
Its GI50 is 1.65 pM.

And the TGI [12]?
The TGI was 0.0547 µM and 0.0255 µM.

And the TGI [13]?
The TGI was 0.0199 µM and 0.053 µM.

What about the GI50 [14] of the same compound?
The GI50 was 0.00251 µM.

And the TGI [14]?
The TGI was 0.0425 µM and 0.0487 µM.

What about the TGI [15] of the same compound?
The TGI was 0.00316 µM and 0.00845 µM.

What about the TGI [16] of the same compound?
Its TGI is 0.00648 µM and 0.039 µM.

And the TGI [17]?
The TGI was 0.00511 µM and 0.0314 µM.

For CC1=C/C(=C(\c2ccc(N(C)C)cc2)c2ccc([N+](C)(C)C)cc2)C=CC1=[N+](C)C, which TGI [18] is on record?
The TGI was 24.5 µM.

And the TGI [19]?
The TGI was 28.9 µM.

What about the TGI [1] of the same compound?
The TGI was 25.4 µM.

What about the TGI [20] of the same compound?
Its TGI is 36.7 µM.

What about the TGI [21] of the same compound?
The TGI was 35 µM.

And the TGI [22]?
Its TGI is 31.2 µM.

What about the TGI [23] of the same compound?
The TGI was 46.3 µM.

What about the TGI [24] of the same compound?
Its TGI is 22.4 µM.

And the TGI [5]?
The TGI was 43.8 µM.

And the TGI [25]?
The TGI was 78.1 µM.

And the TGI [26]?
Its TGI is 31.6 µM.

What about the TGI [27] of the same compound?
Its TGI is 17.7 µM.

And the TGI [28]?
The TGI was 26.6 µM.

And the TGI [29]?
The TGI was 34.6 µM.

And the TGI [6]?
The TGI was 19.3 µM.

What about the TGI [30] of the same compound?
Its TGI is 14.3 µM.

And the TGI [31]?
Its TGI is 20.3 µM.

And the TGI [7]?
Its TGI is 58.2 µM.

What about the TGI [32] of the same compound?
The TGI was 32.8 µM.

And the TGI [33]?
The TGI was 71.5 µM.

What about the TGI [34] of the same compound?
The TGI was 32.9 µM.

And the TGI [35]?
Its TGI is 31.4 µM.

And the TGI [36]?
The TGI was 77.9 µM.

And the TGI [37]?
Its TGI is 33.8 µM.

And the TGI [38]?
The TGI was 26.3 µM.

And the TGI [8]?
The TGI was 14.9 µM.

And the TGI [39]?
Its TGI is 41.1 µM.

And the TGI [40]?
The TGI was 17.6 µM.

What about the TGI [41] of the same compound?
Its TGI is 21.4 µM.

And the TGI [42]?
Its TGI is 69.8 µM.

What about the TGI [43] of the same compound?
Its TGI is 5.93 µM.

And the TGI [44]?
The TGI was 27.9 µM.

And the TGI [45]?
Its TGI is 22.1 µM.

What about the TGI [46] of the same compound?
The TGI was 69 µM.

And the TGI [11]?
Its TGI is 53.5 µM.

And the TGI [47]?
Its TGI is 22.4 µM.

What about the TGI [48] of the same compound?
The TGI was 32.3 µM.

What about the TGI [49] of the same compound?
The TGI was 4.75 µM.

And the TGI [50]?
Its TGI is 18.2 µM.

And the TGI [12]?
Its TGI is 28.2 µM.

And the TGI [51]?
The TGI was 5.44 µM.

And the TGI [52]?
Its TGI is 10.1 µM.

And the TGI [53]?
Its TGI is greater than 100 µM.

What about the TGI [54] of the same compound?
Its TGI is 24.4 µM.

What about the TGI [55] of the same compound?
Its TGI is greater than 100 µM.

And the TGI [56]?
Its TGI is 26.6 µM.

And the TGI [57]?
Its TGI is 10.6 µM.

What about the TGI [58] of the same compound?
Its TGI is 30.6 µM.

What about the TGI [59] of the same compound?
The TGI was 85.4 µM.

And the TGI [60]?
Its TGI is 16.1 µM.

And the TGI [61]?
The TGI was 89.4 µM.

What about the TGI [62] of the same compound?
The TGI was 45.3 µM.

What about the TGI [16] of the same compound?
Its TGI is 43 µM.

What about the TGI [63] of the same compound?
Its TGI is 19.3 µM.

And the TGI [64]?
The TGI was 16.1 µM.

What about the TGI [65] of the same compound?
Its TGI is 15.8 µM.

What about the TGI [17] of the same compound?
The TGI was 48.7 µM.
